These results are taken from PMC8341105, “Mapping the energy landscape of protein–ligand binding via linear free energy relationships determined by protein NMR relaxation dispersion” (RSC Chemical Biology, 2020).

Experiment [1] deals with T1, galectin-3C (Homo sapiens, UniProt P17931).
T1 construct: the carbohydrate-recognition domain of galectin-3 (galectin-3C); made in house
Also on record: method as in PMID 20873837. The note with it: ITC under sample conditions near-identical to those used for CPMG dispersion experiments; determined previously; cited from earlier work.

For experiment [2], the target named is T1, galectin-3C. Briefly: 15N CPMG relaxation dispersion of ligand binding kinetics. The note with it: for kex, Group 1: Group 1 residues fitted jointly: slow exchange corresponding to ligand binding/unbinding; for kex, Group 2: Group 2 residues fitted jointly: fast conformational exchange independent of ligand binding/unbinding; for Population (relative population of the bound state, pB), Group 1: global fit of Group 1 residues, near-saturated NMR sample. The text has this:
We measured equilibrium exchange between free and ligand-bound states of galectin-3C using ^15N CPMG relaxation dispersion experiments[15] acquired on near-saturated samples at two static magnetic field strengths. […] We analyzed the relaxation dispersion profiles using a two-state exchange model (eqn (1)–(4)).[18,27,28] […] All residues within a given group were then fitted jointly to yield global exchange parameters, kex and p, and residue-specific ΔδCPMG (ESI, ^† Table S1 lists all residues included in the fit for the two groups of each complex together with the fitted parameters). In the following, we focus on the exchange related to ligand binding and release.
In the present case, we determined all exchange parameters directly from the relaxation dispersion data. […] This requires that the ligand and protein concentrations are measured accurately, Kd is known from previous experiments, and the NMR spectra of the free and bound states are available; these requirements are easily met in most cases. While the amplitude and shape of the relaxation dispersion profile depends intricately on the populations, rates, and chemical shift difference, it may be expected that off-rates can be determined for systems with dissociation constants in the range of 0.1 μM to 1 mM.
^15N-Labeled galectin-3C samples were prepared by extensive dialysis (Slide-A-Lyzer MINI Dialysis, ThermoScientific) against 5 mM 4-(2-hydroxyethyl)-1-piperazinethanesulfonic acid (HEPES) buffer to remove all lactose, followed by centrifugation at 14 000 rpm for 5 minutes to remove any aggregates. The protein concentration was determined by UV absorption at 280 nm, as described before.[33] […] Ligand–galectin-3C complexes were prepared by titrating freshly sonicated stock solutions of the ligands into apo galectin-3C samples while monitoring the galectin-3C chemical shifts in the ^15N heteronuclear single-quantum correlation (HSQC) spectrum. At the end of each titration, the total amount of added DMSO in the L2 and L3 samples was 2% (v/v).
Relaxation-compensated CPMG relaxation dispersion experiments[15] were performed using the constant-time approach[34] covering 18–24 different refocusing frequencies, νcp. An equilibration period of 5 ms was added prior to the CPMG refocusing pulse train to ensure that the initial magnetizations reflect the relative populations of the exchanging states.[35] […] Spectra were processed using NMRPipe.[37] The processing protocol involved a solvent filter, cosine-squared apodization functions, zero filling to twice the number of increments in all dimensions, and a polynomial baseline correction in the ^1H dimension. Relaxation rates were extracted using PINT, which employs line-shape fitting to resolve overlapped peaks.[38] Peak intensities were evaluated using a weighted sum of Lorentzian and Gaussian line shapes. Standard deviations were determined by propagating the errors of intensities estimated from the baseplane noise. Error estimates are reported as one standard deviation.
The relaxation dispersion data were analyzed using CPMGfit v2.22, an in-house Matlab program.

Setting [3] is: k on is determined from Kd and koff (kon = koff/Kd).
The mark [4] stands for this setting: koff = kex(1 − pB), 15N CPMG relaxation dispersion, 301 K, near-saturated samples.

Several values for one entry are separate records, joined by “and”; a condition that tells them apart may be missing. Equal values may be shown once. Read-outs that look alike come from different tables or passages of the source.

T1 sequence (P17931 118-248 limits assumed): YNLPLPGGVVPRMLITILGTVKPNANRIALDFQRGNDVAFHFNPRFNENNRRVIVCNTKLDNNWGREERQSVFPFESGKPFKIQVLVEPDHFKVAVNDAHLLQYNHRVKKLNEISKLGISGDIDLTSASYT

On to `OC[C@H]1O[C@@H](S[C@@H]2O[C@H](CO)[C@@H](O)[C@H](O)[C@H]2O)[C@H](O)[C@@H](n2cc(-c3ccc(F)cc3)nn2)[C@H]1O` [pL4, para-fluoro-phenyltriazolyl-galactosylthioglucoside], for which the Kd on galectin-3C [1] is 2.5 ± 0.3 µM. For the same molecule, on galectin-3C [2], the koff worked out at 13 ± 1 s⁻¹; the kon is 5.2e+06 ± 800000 M⁻¹ s⁻¹; the “kex, Group 1” value is 859 ± 115 s⁻¹; the “kex, Group 2” value was 8386 ± 691 s⁻¹. Further, the “Population (relative population of the bound state, pB), Group 1” value at galectin-3C [2] is 0.99 ± 0.01.

In the case of `OC[C@H]1O[C@@H](S[C@@H]2O[C@H](CO)[C@@H](O)[C@H](O)[C@H]2O)[C@H](O)[C@@H](n2cc(-c3cccc(F)c3)nn2)[C@H]1O` [mL4, meta-fluoro-phenyltriazolyl-galactosylthioglucoside], on galectin-3C [2], the koff amounted to 8 ± 1 s⁻¹; the kon amounted to 3.9e+06 ± 700000 M⁻¹ s⁻¹; the “kex, Group 1” value was found to be 808 ± 55 s⁻¹; the “kex, Group 2” value stood at 4804 ± 448 s⁻¹.

For the molecule “3′-benzamido-N-acetyllactosamine [Ligand L2]”, the Kd at galectin-3C [1] is 18.2 ± 0.2 µM. In addition, at galectin-3C [2], the “kex, Group 1” value amounted to 385 ± 126 s⁻¹; the “kex, Group 2” value came out at 5370 ± 850 s⁻¹; the “Population (relative population of the bound state, pB), Group 1” value is 0.93–0.94 and 0.93 ± 0.04. Besides, the kon on galectin-3C [2] (setting [3]) is 1.6 ± 0.5 10^6 M^−1 s^−1. This molecule also registered a koff on galectin-3C [2] (setting [4]) of 28 ± 9 s⁻¹.

For the molecule “3′-(4-methoxy-2,3,5,6-tetrafluorobenzamido)-N-acetyllactosamine [Ligand L3]”, the Kd at galectin-3C [1] is 3.3 ± 0.1 µM. Moreover, at galectin-3C [2], the “kex, Group 1” value was determined as 123 ± 20 s⁻¹; the “kex, Group 2” value was 4110 ± 760 s⁻¹; the “Population (relative population of the bound state, pB), Group 1” value was 0.93–0.94 and 0.94 ± 0.01. Further, the kon on galectin-3C [2] (setting [3]) is on record as 2.4 ± 0.4 10^6 M^−1 s^−1. This molecule also yielded a koff on galectin-3C [2] (setting [4]) of 8 ± 1 s⁻¹.

With `OC[C@H]1O[C@@H](S[C@@H]2O[C@H](CO)[C@@H](O)[C@H](O)[C@H]2O)[C@H](O)[C@@H](n2cc(-c3ccccc3F)nn2)[C@H]1O` [oL4, ortho-fluoro-phenyltriazolyl-galactosylthioglucoside], at galectin-3C [2], the “kex, Group 1” value was 1210 ± 209 s⁻¹; the “kex, Group 2” value was found to be 15800 ± 386 s⁻¹; the “Population (relative population of the bound state, pB), Group 1” value was found to be 0.97 ± 0.01. Also, the kon on galectin-3C [2] (k on is determined from Kd and koff (kon = koff/Kd), read-out: k on) came to 4.4e+06 ± 1.1e+06 M⁻¹ s⁻¹. In addition, on galectin-3C [2] (koff = kex(1 − pB), 15N CPMG relaxation dispersion, 301 K, near-saturated samples, read-out: k off), the koff turned out to be 32 ± 5 s⁻¹.
